Experimental data: patent publication US20110020517A1, “TASTE MODIFYING PRODUCT” (priority 2008, published 2011)

Columns and labels:
[1] = Evaluation for umami/kokumi taste and mouthfeel by a team of 8 trained panelists, in 0.3% aqueous NaCl solution; settings: 10 ppm in 0.3% aqueous NaCl solution
Protocol: Liquid 2-(3-phenylpropyl)pyridine was obtained from R.C. Treatt & Co Ltd, UK (reference SA362100/2). It was then diluted into propylene glycol solvent to provide a 10% solution of the 2-(3-phenylpropyl)pyridine, the resulting solution then being added to a 0.3% aqueous NaCl solution to provide a concentration of 2-(3-phenylpropyl)pyridine of 10 ppm.
The sample was evaluated for umami/kokumi taste and mouthfeel by a team of 8 trained panelists.

[2] = prior art, U.S. Pat. No. 5,298,486 column 2 lines 24 to 33; cited from earlier work

Row | Compound | Description: Mouthfeel [1] | Description: Taste [1] | Kokumi/Umami taste intensity ([1]; scale of 0 to 10, 0 = no Kokumi/Umami effect, 10 = very intense effect) | flavor note [2]
1 | c1ccc(CCCc2ccccn2)cc1 [2-(3-phenylpropyl)pyridine] | Mouthfeel: sweet, | Taste: brown, fatty, | 7 | 
2 | CCCCCCCc1cccnc1 [3-heptylpyridine] |  |  |  | fatty, metallic and fishy
3 | CCCCCCc1cccnc1 [3-hexylpyridine] |  |  |  | fruity
